# Laboratory results from patent publication US12337004B2, “Coumarin-modified androgens for the treatment of prostate cancer” (Health Research, Inc., priority 2019, dated 2025).
# Columns and labels:
# [1] = target: T1, AR-V2 (Homo sapiens, UniProt P10275); type: cell-based; settings: DHT-17C versus enzalutamide
# T1 construct: stably expressed AR170 LBD only with splice variant V2 (AR-V2-GFP); expressed in transfected cells; host or cells: VCaP, PC-3
# T1 sequence (P10275 1-388 isoform P10275-2): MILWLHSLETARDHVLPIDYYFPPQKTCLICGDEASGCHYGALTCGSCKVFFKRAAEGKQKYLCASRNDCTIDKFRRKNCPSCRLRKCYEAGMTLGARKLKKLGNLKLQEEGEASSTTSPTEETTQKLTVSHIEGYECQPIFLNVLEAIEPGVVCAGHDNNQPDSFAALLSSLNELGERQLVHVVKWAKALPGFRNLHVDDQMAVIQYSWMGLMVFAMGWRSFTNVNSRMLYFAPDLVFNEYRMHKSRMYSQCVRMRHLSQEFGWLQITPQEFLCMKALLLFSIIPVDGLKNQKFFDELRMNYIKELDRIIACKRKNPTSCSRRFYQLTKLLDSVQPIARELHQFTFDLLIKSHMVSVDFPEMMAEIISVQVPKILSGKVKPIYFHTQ
# From the text: (§4) ImageStream was used to perform competition studies between DHT-17C and enzalutamide for AR-GFP or AR-V2 to establish that DHT-17C targets the AR-LBD.
# [2] = target: T2, AR-GFP (Homo sapiens, UniProt P10275); experiment: ImageStream nuclear co-localization with AR-GFP; type: cell-based; settings: VCaP-AR-GFP and PC-3-AR-GFP cells
# T2 construct: expressed in transfected cells; host or cells: VCaP, PC-3 (also LAPC-4, CWR-R1, 22Rv1, DU145)
# T2 sequence (P10275 1-920): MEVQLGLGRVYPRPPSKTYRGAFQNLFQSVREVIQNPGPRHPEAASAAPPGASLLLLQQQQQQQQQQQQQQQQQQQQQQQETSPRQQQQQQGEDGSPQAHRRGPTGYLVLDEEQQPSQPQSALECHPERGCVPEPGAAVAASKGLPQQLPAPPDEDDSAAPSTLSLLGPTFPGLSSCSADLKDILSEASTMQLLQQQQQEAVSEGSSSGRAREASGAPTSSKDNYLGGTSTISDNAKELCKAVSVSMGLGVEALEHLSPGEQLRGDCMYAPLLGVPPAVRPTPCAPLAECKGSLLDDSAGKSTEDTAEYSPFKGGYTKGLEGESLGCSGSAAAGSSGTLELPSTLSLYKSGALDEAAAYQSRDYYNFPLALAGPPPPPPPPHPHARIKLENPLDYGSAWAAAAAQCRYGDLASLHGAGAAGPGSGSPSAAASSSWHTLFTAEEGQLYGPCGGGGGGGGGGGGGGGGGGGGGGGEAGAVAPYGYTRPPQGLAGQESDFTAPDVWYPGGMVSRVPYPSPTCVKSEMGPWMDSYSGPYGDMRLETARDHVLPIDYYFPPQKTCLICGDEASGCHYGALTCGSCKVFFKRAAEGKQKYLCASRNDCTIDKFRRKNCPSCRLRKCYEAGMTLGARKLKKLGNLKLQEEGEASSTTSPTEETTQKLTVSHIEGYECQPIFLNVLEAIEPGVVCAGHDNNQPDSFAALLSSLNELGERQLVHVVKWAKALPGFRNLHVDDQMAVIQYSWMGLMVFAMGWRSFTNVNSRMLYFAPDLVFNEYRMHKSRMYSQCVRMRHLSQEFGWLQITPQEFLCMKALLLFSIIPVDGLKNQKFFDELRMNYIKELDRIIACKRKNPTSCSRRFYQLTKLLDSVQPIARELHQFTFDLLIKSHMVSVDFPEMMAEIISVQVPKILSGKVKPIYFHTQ
# From the text: Androgen-sensitive AR-positive LAPC-4 and VCaP, castration-recurrent and AR-positive CWR-R1 and CWR-22rv1 (22rv1), and AR-negative PC-3 and DU145 cells were transfected with either an empty pCMV expression plasmid (control) or a pCMV plasmid that encoded a wild-type AR tagged with a C-terminal green fluorescent protein (GFP; AR-GFP). AR-positive CaP cell lines were transfected with AR-GFP to assess if DHT-17C or DHT-3C co-localized with AR and translocated to the nucleus.
# AR positive CaP cell lines were treated for 16 hours with androgen-free, serum-free complete media (SFM) alone, or SFM that contained 20 nM or 50 nM fluorescent-androgens or C alone. The time points were chosen to measure differences in uptake of the fluorescent-androgens and nuclear or cytosolic localization of the fluorescent-androgens and/or AR-GFP.
# Serum-free complete media (SFM)^2 was used to androgen deprive cells.
# [3] = system: 293 human kidney cell line; experiment: MTT cell growth, 293; type: cell-based; settings: non-CaP cell line
# [4] = system: LNCaP cells; experiment: MTT cell growth, LNCaP; type: cell-based; settings: six days; data not shown
# [5] = system: PC-3 cells; experiment: MTT cell growth, AR-negative PC-3; type: cell-based; settings: six days, 20 nM
# Description: (§1) Identification of a 3α-oxidoreductase inhibitors: Various non-steroidal compounds were tested for anti-neoplastic activity by screening against PC-3 CaP cells. Coumarin-labeled androgens were developed to track changes in androgen metabolism pathways in response to castration or androgen metabolism inhibition using in vitro and in vivo CaP cell models.
# (§2) VCaP, CWR-R1 and PC-3 cells were treated for six days with complete culture media (CM), serum-free culture media (SFM), bicalutamide (Bic) at 10 μM, the coumarin C at 20 μM, DHT at 10 nM, DHT-17C at 20 nM and DHT-3C at 20 nM (FIG. 20). […] MTT analysis was performed to compare cell growth impairment of VCaP cells treated with DHT-17C versus enzalutamide. Cells were treated with DHT-17C at 1 nM, 12 nM, 20 nM, 50 nM or 100 nM concentrations, or enzalutamide at 1 μM, 12 μM, 20 μM, 50 μM or 100 μM concentrations. […] MTT performed using ezanlutamide (20 uM) or DHT-17C (50 nM) treated mutant AR and AR-V7 positive CWR-R1 cells supported VCaP MTT data (FIG. 22).
# [6] = system: VCaP cells; experiment: MTT cell growth, VCaP; type: cell-based
# Description: as §1, §2
# [7] = system: DU145 cells; experiment: MTT cell growth, DU145; type: cell-based; settings: AR-negative
# [8] = system: CWR-R1 cells; experiment: MTT cell growth, CWR-R1; type: cell-based, human; settings: six days
# Description: as §1, §2
# [9] = target: T3, AR-V2-GFP (Homo sapiens, UniProt P10275); experiment: ImageStream co-localization with AR-V2-GFP; type: cell-based; settings: VCaP and PC-3 cells that stably expressed AR-V2-GFP
# T3 construct: stably expressed AR170 LBD only with splice variant V2 (AR-V2-GFP); expressed in transfected cells; host or cells: VCaP, PC-3
# T3 sequence (P10275 1-388 isoform P10275-2): T1 sequence (P10275 1-388 isoform P10275-2)
# Description: ImageStream studies were repeated using VCaP and PC-3 cells that stably expressed AR-V2 (splice-variant that lacked the N-terminus) with C-terminal GFP (AR-V2-GFP). […] ImageStream data was confirmed using immunoprecipation (IP) studies performed with a DHT-targeted antibody.
# Serum-free complete media (SFM)^2 was used to androgen deprive cells. PC-3 cells that contained empty plasmid were treated with SFM alone, SFM with C or SFM with DHT-3C.
# [10] = system: LAPC-4 cells; experiment: MTT cell growth, LAPC-4; type: cell-based; settings: six days; data not shown
# [11] = target: T2, AR-GFP; type: cell-based; settings: DHT-17C versus enzalutamide
# From the text: as §4
# [12] = system: KLK2; experiment: qRT-PCR of AR-regulated gene KLK2; type: cell-based; settings: 24 hours; VCaP, LAPC-4, LNCaP, CWR-R1 and 22rv1 cells
# [13] = system: 22Rv1 cells; experiment: MTT cell growth, 22Rv1; type: cell-based; settings: six days; data not shown
# [14] = system: CV-1 monkey kidney cell line; experiment: MTT cell growth, CV-1; type: cell-based; settings: non-CaP cell line
# [15] = system: KLK2; experiment: Western blot of AR-regulated protein expression; type: cell-based; settings: CaP cell lines
# [16] = system: ARE-luciferase; experiment: ARE-luciferase transactivation; type: cell-based
# [17] = target: T4, RDH16-YFP (Homo sapiens, UniProt O75452); experiment: ImageStream competition for RDH16-YFP; type: cell-based; settings: PC-3 cells that stably expressed RDH16-YFP
# T4 construct: expressed in transfected cells; host or cells: PC-3
# T4 sequence (O75452 1-317): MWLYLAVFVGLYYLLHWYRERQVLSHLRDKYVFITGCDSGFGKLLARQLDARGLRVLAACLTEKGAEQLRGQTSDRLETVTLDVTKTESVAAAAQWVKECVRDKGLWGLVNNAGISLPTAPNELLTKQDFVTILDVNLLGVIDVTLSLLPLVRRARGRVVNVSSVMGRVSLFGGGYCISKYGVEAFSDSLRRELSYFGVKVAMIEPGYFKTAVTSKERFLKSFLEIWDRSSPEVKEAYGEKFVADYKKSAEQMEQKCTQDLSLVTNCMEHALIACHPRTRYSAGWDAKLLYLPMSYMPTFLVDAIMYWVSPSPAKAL
# Description: (§3) ImageStream (ImageStream^X-MKII Flow Cytometer [Amnis, Seattle, WA]) is a hybrid technique that combines the statistical power of flow cytometry and the imaging capability of fluorescence microscopy that was adapted to study simultaneously DIOL-17C compartmental localization and activity. ImageStream data were normalized against single-stained controls and analyzed using Image Data Exploration and Analysis Software (IDEAS; Amnis). The similarity score was measured by comparing two images of the same cell pixel by pixel. If the similarity score was >0, the two objects (RDH16-YFP and DIOL-17C) were co-localized.
# [18] = system: 3α-oxidoreductase; experiment: LC-MS/MS of CaP cells treated with DIOL-17C; type: in vitro ADME
# [19] = target: T4, RDH16-YFP; experiment: ImageStream co-localization with RDH16-YFP; type: cell-based; settings: PC-3-RDH16-YFP cells
# Description: as §3
compound,measurement,setting,value
"C[C@]12CCC3C(CC[C@H]4CC(=O)CC[C@]34C)C1CC[C@@H]2OCC(=O)NCCc1cc(=O)oc2c3c4c(cc12)CCCN4CCC3 (stereo partly drawn) [DHT-17C, N-2′-(2,3,4,5-Tetrahydro-1H,4H-10-keto-11-oxa-3α-azabenzo[de]anthracenyl)ethyl (3-keto-5α-androstan-17β-yl)glycolamide]",competition for the AR-LBD of AR-V2,[1],compete for the AR-LBD of wild-type AR and AR-V2
same,nuclear co-localization with AR-GFP and DRAQ5,[2],co-localized with AR-GFP
same,293 cell growth (MTT),[3],did not impair cell growth
same,LNCaP cell growth (MTT),[4],produced similar responses
same,PC-3 cell growth (MTT),[5],did not impair cell growth
same,dose lower than enzalutamide for VCaP growth inhibition,"[6]; DHT-17C 20 nM vs enzalutamide 20 μM, AR-V7 positive VCaP",1000 ×
same,VCaP cell growth impairment versus enzalutamide,"[6]; DHT-17C at 1, 12, 20, 50 or 100 nM",impaired VCaP cell growth to similar extents as enzalutamide
same,VCaP cell growth (MTT),"[6]; six days, DHT-17C at 20 nM, DHT-3C at 20 nM",impaired VCaP and CWR-R1 cell growth
same,"VCaP cell growth, combination with bicalutamide","[6]; six days, bicalutamide 10 μM, p-values<0.05",enhanced the effect of bicalutamide
same,DU145 cell growth (MTT),[7],did not impair cell growth
same,CWR-R1 cell growth (MTT),"[8]; DHT-17C at 20 nM, DHT-3C at 20 nM",impaired VCaP and CWR-R1 cell growth
same,"CWR-R1 cell growth, combination with bicalutamide","[8]; bicalutamide 10 μM, p-values<0.05",enhanced the effect of bicalutamide
same,co-localization with AR-V2-GFP,[9],co-localized with DRAQ5 and AR-V2-GFP
same,LAPC-4 cell growth (MTT),[10],produced similar responses
same,competition for the AR-LBD of wild-type AR,[11],compete for the AR-LBD of wild-type AR and AR-V2
same,KLK2 transcript induction,[12],did not induce KLK2 transcript formation
same,22Rv1 cell growth (MTT),[13],produced similar responses
same,CV-1 cell growth (MTT),[14],did not impair cell growth
"C[C@]12CCC(=O)C[C@@H]1CC[C@@H]1[C@@H]2CC[C@]2(C)[C@@H](O)CC[C@@H]12 [DHT, 5α-dihydrotestosterone, reference compound]",AR-regulated protein expression levels,[15],produced similar AR-regulated protein expression levels
same,ARE-luciferase signal,[16],produced ARE-luciferase signal
same,KLK2 transcript induction,[12],produced similar inductions of expression
"C[C@]12CC[C@@H](O)C[C@@H]1CC[C@@H]1[C@@H]2CC[C@]2(C)[C@@H](O)CC[C@@H]12 [DIOL, 5α-androstane-3α,17β-diol, reference compound]",ARE-luciferase signal,[16],produced ARE-luciferase signal
same,competition for RDH16-YFP,[17],compete for RDH16-YFP
"C[C@]12CCC3C(CC[C@H]4C[C@H](O)CC[C@]34C)C1CC[C@@H]2OCC(=O)NCCc1cc(=O)oc2c3c4c(cc12)CCCN4CCC3 (stereo partly drawn) [DIOL-17C, N-2′-(2,3,4,5-Tetrahydro-1H,4H-10-keto-11-oxa-3α-azabenzo[de]anthracenyl)ethyl (3α-hydroxy-5α-androstan-17β-yl)glycolamide]",competition for RDH16-YFP,[17],compete for RDH16-YFP
same,CaP cell growth (MTT),"[6]; 20 nM, 6 days in SFM, FIG. 14 VCaP",impaired CaP cell growth
same,3α-oxidoreductase metabolism to DHT-17C,[18],did not impair 3α-oxidoreductase metabolism of DIOL-17C to DHT-17C
same,free DIOL and orphan coumarin produced by cells,[18],No orphan fluorophores were detected
same,co-localization with RDH16-YFP and DRAQ5 in the nucleus,[19],co-localized with RDH16-YFP
